Source: US6472348B1, “Pyridone derivatives and herbicides” (Kumiai Chemical Industry Co., Ltd., priority 1996, dated 2002)

What was measured:
rice flatsedge (Ci) [1] = assay: Test Example 2: herbicidal effects by upland field soil treatment; assay type: in vivo; conditions: 100 g of the active ingredient per 10 ares, 21st day after the application, index 0-5 of Table 47;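 further: grade of growth control; 5 = at least 90%; 4 = 70 to 90%; 3 = 50 to 70%; 2 = 30 to 50%; 1 = 10 to 30%; 0 = under 10%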
Source text: (§1) (Test on Herbicidal Effects by Upland Field Soil Treatment)

[2] = tested on: common lambsquarters (Ch); assay: as above; assay type: in vivo; conditions: 100 g of the active ingredient per 10 ares, 21st day after the application, index 0-5 of Table 47
Source text: as §1

pale smartweed (Po) [3] = assay: as above; assay type: in vivo; conditions: 100 g of the active ingredient per 10 ares, 21st day after the application, index 0-5 of Table 47
Source text: as §1

slender amaranth (Am) [4] = assay: as above; assay type: in vivo; conditions: 100 g of the active ingredient per 10 ares, 21st day after the application, index 0-5 of Table 47
Source text: as §1

barnyardgrass (Ec) [5] = assay: as above; assay type: in vivo; conditions: 100 g of the active ingredient per 10 ares, 21st day after the application, index 0-5 of Table 47
Source text: as §1

Digitaria ciliaris (Di) = assay: as above; assay type: in vivo; conditions: 100 g of the active ingredient per 10 ares, 21st day after the application, index 0-5 of Table 47;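 further: grade of growth control; 5 = at least 90%; 4 = 70 to 90%; 3 = 50 to 70%; 2 = 30 to 50%; 1 = 10 to 30%; 0 = under 10%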
Source text: as §1

rice flatsedge (Ci) [6] = assay: Test Example 3: herbicidal effects by upland field foliage treatment; assay type: in vivo; set-up: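 grade of growth control; 5 = at least 90%; 4 = 70 to 90%; 3 = 50 to 70%; 2 = 30 to 50%; 1 = 10 to 30%; 0 = under 10%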; conditions: 100 g of the active ingredient per 10 ares, evaluated on the 14th day after treatment
In short: (§2)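 Using plants cultured for 2 weeks in a greenhouse from seed sown in soil-covered sand (pots 120 cm^2), the compounds were applied to foliage, and weed control was graded by standard criteria 14 days thereafter.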

[7] = tested on: common lambsquarters (Ch); assay: as above; assay type: in vivo; set-up: scale not given here; conditions: 100 g of the active ingredient per 10 ares, evaluated on the 14th day after treatment
In short: as §2

Diaitaria ciliaris (Di) = assay: as above; assay type: in vivo; set-up: scale not given here; conditions: 100 g of the active ingredient per 10 ares, evaluated on the 14th day after treatment
In short: as §2

pale smartweed (Po) [8] = assay: as above; assay type: in vivo; set-up: scale not given here; conditions: 100 g of the active ingredient per 10 ares, evaluated on the 14th day after treatment
In short: as §2

slender amaranth (Am) [9] = assay: as above; assay type: in vivo; set-up: scale not given here; conditions: 100 g of the active ingredient per 10 ares, evaluated on the 14th day after treatment
In short: as §2

barnyardgrass (Ec) [10] = assay: as above; assay type: in vivo; set-up: scale not given here; conditions: 100 g of the active ingredient per 10 ares, evaluated on the 14th day after treatment
In short: as §2

soybean (Gl) = assay: Test Example 10: crop plant selectivity by upland field foliage treatment (soybean), phytotoxicity; conditions: dose 1.6 g ai/10a, 14th day after treatment
Protocol: (§3) (Test on Crop Plant Selectivity by Upland Field Foliage Treatment)
(§4) In a plastic pot (surface area: 600 cm^2) filled with sand, soybean (Gl), pale smartweed (Po), slender amaranth (Am), common lambsquarters (Ch) and China jute (Ab) were sown and cultured in a green house for 2 weeks. […] The plants were then cultured in a green house, and the evaluation of the herbicidal effects and phytotoxicity was conducted on the 14th day after the treatment in accordance with the standards as identified in Table 47.

[11] = tested on: common lambsquarters (Ch); assay: Test Example 9: crop plant selectivity by upland field foliage treatment (wheat), herbicidal effects; assay type: in vivo; set-up: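 grade of growth control; 5 = at least 90%; 4 = 70 to 90%; 3 = 50 to 70%; 2 = 30 to 50%; 1 = 10 to 30%; 0 = under 10%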; conditions: dose 1.6 g ai/10a, 14th day after treatment
In short: (§5)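 Wheat and weeds sown in sand-filled pots, grown 2 weeks in a greenhouse, then foliage-treated. Herbicidal effect and crop phytotoxicity were scored 14 days after treatment against a rating scale.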

China jute (Ab) [12] = assay: as above; assay type: in vivo; set-up: scale not given here; conditions: dose 1.6 g ai/10a, 14th day after treatment
In short: as §5

pale smartweed (Po) [13] = assay: as above; assay type: in vivo; set-up: scale not given here; conditions: dose 1.6 g ai/10a, 14th day after treatment
In short: as §5

slender amaranth (Am) [14] = assay: as above; assay type: in vivo; set-up: scale not given here; conditions: dose 1.6 g ai/10a, 14th day after treatment
In short: as §5

[15] = tested on: common lambsquarters (Ch); assay: Test Example 10: crop plant selectivity by upland field foliage treatment (soybean), herbicidal effects; assay type: in vivo; conditions: dose 1.6 g ai/10a, 14th day after treatment
Protocol: as §3, §4

China jute (Ab) [16] = assay: as above; assay type: in vivo; conditions: dose 1.6 g ai/10a, 14th day after treatment
Protocol: as §3, §4

pale smartweed (Po) [17] = assay: as above; assay type: in vivo; conditions: dose 1.6 g ai/10a, 14th day after treatment
Protocol: as §3, §4

slender amaranth (Am) [18] = assay: as above; assay type: in vivo; conditions: dose 1.6 g ai/10a, 14th day after treatment
Protocol: as §3, §4

[19] = tested on: common lambsquarters (Ch); assay: Test Example 11: crop plant selectivity by upland field foliage treatment (corn), herbicidal effects; assay type: in vivo; set-up: scale not given here; conditions: upland field foliage treatment (corn test), dose 1.6 g ai/10a, 14th day after treatment
In short: (§6)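 Corn with pale smartweed, slender amaranth, common lambsquarters and China jute sown in sand-filled pots and grown 2 weeks in a greenhouse before foliage treatment. Herbicidal effect and crop phytotoxicity scored on day 14 after treatment against a rating standard.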

China jute (Ab) [20] = assay: as above; assay type: in vivo; set-up: scale not given here; conditions: upland field foliage treatment (corn test), dose 1.6 g ai/10a, 14th day after treatment
In short: as §6

pale smartweed (Po) [21] = assay: as above; assay type: in vivo; set-up: scale not given here; conditions: upland field foliage treatment (corn test), dose 1.6 g ai/10a, 14th day after treatment
In short: as §6

slender amaranth (Am) [22] = assay: as above; assay type: in vivo; set-up: scale not given here; conditions: upland field foliage treatment (corn test), dose 1.6 g ai/10a, 14th day after treatment
In short: as §6

corn (Ze) = assay: Test Example 11: crop plant selectivity by upland field foliage treatment (corn), phytotoxicity; conditions: upland field foliage treatment, dose 1.6 g ai/10a, 14th day after treatment
In short: as §6

monochoria (Mo) = assay: Test Example 1: herbicidal effects by paddy field soil treatment; assay type: in vivo; conditions: 100 g of the active ingredient per 10 ares, 21st day after the application, index 0-5 of Table 47;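 further: grade of growth control; 5 = at least 90%; 4 = 70 to 90%; 3 = 50 to 70%; 2 = 30 to 50%; 1 = 10 to 30%; 0 = under 10%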
In short: (§7)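 Scoring of herbicidal effect came 21 days after application of 100 g active ingredient per 10 ares to flooded (3 cm) paddy-soil pots sown with barnyardgrass, monochoria and bulrush, kept in a greenhouse.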

bulrush (Sc) = assay: as above; assay type: in vivo; conditions: 100 g of the active ingredient per 10 ares, 21st day after the application, index 0-5 of Table 47;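 further: grade of growth control; 5 = at least 90%; 4 = 70 to 90%; 3 = 50 to 70%; 2 = 30 to 50%; 1 = 10 to 30%; 0 = under 10%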
In short: as §7

barnyardgrass (Ec) [23] = assay: as above; assay type: in vivo; conditions: 100 g of the active ingredient per 10 ares, 21st day after the application, index 0-5 of Table 47
In short: as §7

wheat (Tr) = assay: Test Example 9: crop plant selectivity by upland field foliage treatment (wheat), phytotoxicity; conditions: dose 1.6 g ai/10a, 14th day after treatment
In short: as §5

Cn1c(C(F)(F)F)ccc(-c2cc(OC3CCCC3)c(Cl)cc2F)c1=O [1-26]
Herbicidal effects Ci (rice flatsedge (Ci) [1]): 5 | Herbicidal effects Ch [2]: 5 | Herbicidal effects Po (pale smartweed (Po) [3]): 5 | Herbicidal effects Am (slender amaranth (Am) [4]): 5 | Herbicidal effects Ec (barnyardgrass (Ec) [5]): 5 | Herbicidal effects Di (Digitaria ciliaris (Di)): 5 | Herbicidal effects Ci (rice flatsedge (Ci) [6]): 5 | Herbicidal effects Ch [7]: 5 | Herbicidal effects Di (Diaitaria ciliaris (Di)): 5 | Herbicidal effects Po (pale smartweed (Po) [8]): 5 | Herbicidal effects Am (slender amaranth (Am) [9]): 5 | Herbicidal effects Ec (barnyardgrass (Ec) [10]): 5 | Phytotoxicity Gl (soybean (Gl)): 2 | Herbicidal effects Ch [11]: 5 | Herbicidal effects Ab (China jute (Ab) [12]): 5 | Herbicidal effects Po (pale smartweed (Po) [13]): 5 | Herbicidal effects Am (slender amaranth (Am) [14]): 5 | Herbicidal effects Ch [15]: 5 | Herbicidal effects Ab (China jute (Ab) [16]): 5 | Herbicidal effects Po (pale smartweed (Po) [17]): 5 | Herbicidal effects Am (slender amaranth (Am) [18]): 5 | Herbicidal effects Ch [19]: 5 | Herbicidal effects Ab (China jute (Ab) [20]): 5 | Herbicidal effects Po (pale smartweed (Po) [21]): 5 | Herbicidal effects Am (slender amaranth (Am) [22]): 5 | Phytotoxicity Ze (corn (Ze)): 2 | Herbicidal effects Mo (monochoria (Mo)): 5 | Herbicidal effects Sc (bulrush (Sc)): 5 | Herbicidal effects Ec (barnyardgrass (Ec) [23]): 5 | Phytotoxicity Tr (wheat (Tr)): 2

Cn1c(C(F)(F)F)ccc(-c2cc(Oc3ccccc3)c(Cl)cc2F)c1=O [Compound No. 1-22]
Herbicidal effects Ci (rice flatsedge (Ci) [6]): 5 | Herbicidal effects Ch [7]: 5 | Herbicidal effects Di (Diaitaria ciliaris (Di)): 5 | Herbicidal effects Po (pale smartweed (Po) [8]): 5 | Herbicidal effects Am (slender amaranth (Am) [9]): 5 | Herbicidal effects Ec (barnyardgrass (Ec) [10]): 5 | Phytotoxicity Gl (soybean (Gl)): 2 | Herbicidal effects Ch [11]: 5 | Herbicidal effects Ab (China jute (Ab) [12]): 5 | Herbicidal effects Po (pale smartweed (Po) [13]): 5 | Herbicidal effects Am (slender amaranth (Am) [14]): 5 | Herbicidal effects Ch [15]: 5 | Herbicidal effects Ab (China jute (Ab) [16]): 5 | Herbicidal effects Po (pale smartweed (Po) [17]): 5 | Herbicidal effects Am (slender amaranth (Am) [18]): 5 | Herbicidal effects Ch [19]: 5 | Herbicidal effects Ab (China jute (Ab) [20]): 5 | Herbicidal effects Po (pale smartweed (Po) [21]): 5 | Herbicidal effects Am (slender amaranth (Am) [22]): 5 | Phytotoxicity Ze (corn (Ze)): 2 | Herbicidal effects Mo (monochoria (Mo)): 5 | Herbicidal effects Sc (bulrush (Sc)): 5 | Herbicidal effects Ec (barnyardgrass (Ec) [23]): 5 | Phytotoxicity Tr (wheat (Tr)): 2
